Measurements reported in patent US20260285888A1, “HETEROCYCLIC COMPOUND AND USE THEREOF” (OTSUKA PHARMACEUTICAL CO., LTD., priority 2023, published 2026).
Read-outs that look alike come from different tables or passages of the source.

What was measured:
[1] = Study for confirmation of conversion to brexpiprazole in a buffer (stability of the evaluation compounds); type: physicochemical; settings: in buffer, average of duplicate; for Concentration of brexpiprazole formed: 60-minute reaction sample; for Concentration of evaluation compound decreased: decrease in 60-minute vs 0-minute reaction sample
Method in brief: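 Compounds (final 1 μmol/L, from 100 μmol/L working solutions) incubated in buffer at 37° C. for 0 or 60 min, in duplicate, after 3 min pre-incubation of the reaction solution. Reactions stopped with acetonitrile/isopropanol (4:1) containing internal standards; compound and formed brexpiprazole quantified against 0.01–1 μmol/L calibration samples.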

[2] = in vitro; type: cell-based, human; settings: human, 300 μmol/L, about 24 hours, PMA-differentiated HL-60 cells, LDH, no-treatment 0%, cell lysis buffer 100%, read-out: cytotoxicity (%) Evaluation compound results
Method in brief: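 HL-60 cells differentiated ~72 h with 10 nM PMA, then exposed ~24 h to compound at 300 μmol/L final in RPMI with 2% FBS. LDH release in supernatant gave cytotoxicity % scaled between untreated (0%) and lysis-buffer (100%) groups; triplicate.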

Row | SMILES | Concentration of brexpiprazole formed [1] | Concentration of evaluation compound decreased [1] | cytotoxicity at 24 h, 300 µM ([2]; differentiated hl-60 cells) | cytotoxicity at 24 h, 300 µM [2]
1 | CCOCCOCCOCCOC(=O)OCOP(=O)([O-])OC[N+]1(CCCCOc2ccc3ccc(=O)[nH]c3c2)CCN(c2cccc3sccc23)CC1 [EX 136, (4-(benzo[b]thiophen-4-yl)-1-(4-((2-oxo-1,2-dihydroquinolin-7-yl)oxy)butyl)piperazin-1-ium-1-yl)methyl (3-oxo-2,4,7,10,13-pentaoxapentadecyl) phosphate] | 0 nM | 0 nM | -9% | –
2 | CC(C)(C)[Si](C)(C)OCCCCOP(=O)([O-])OC[N+]1(CCCCOc2ccc3ccc(=O)[nH]c3c2)CCN(c2cccc3sccc23)CC1 [EX 60, (4-(benzo[b]thiophen-4-yl)-1-(4-((2-oxo-1,2-dihydroquinolin-7-yl)oxy)butyl)piperazin-1-ium-1-yl)methyl (4-((tert-butyldimethylsilyl)oxy)butyl) phosphate] | 0 nM | 90 nM | 16% | –
3 | CC1(C)OCC(NC(=O)CCCC(=O)OCOP(=O)([O-])OC[N+]2(CCCCOc3ccc4ccc(=O)[nH]c4c3)CCN(c3cccc4sccc34)CC2)CO1 [EX 74, (4-(benzo[b]thiophen-4-yl)-1-(4-((2-oxo-1,2-dihydroquinolin-7-yl)oxy)butyl)piperazin-1-ium-1-yl)methyl (((5-((2.2-dimethyl-1,3-dioxan-5-yl)amino)-5-oxopentanoyl)oxy)methyl) phosphate] | 0 nM | 50 nM | -1% | –
4 | Cc1ncccc1C(=O)OCOP(=O)([O-])OC[N+]1(CCCCOc2ccc3ccc(=O)[nH]c3c2)CCN(c2cccc3sccc23)CC1 [EX 81, (4-(benzo[b]thiophen-4-yl)-1-(4-(2-oxo-1,2-dihydroquinolin-7-yl)oxy)butyl)piperazin-1-ium-1-yl)methyl (((2-methylnicotinoyl)oxy)methyl) phosphate] | 0 nM | -30 nM | 8% | –
5 | CCOC(=O)[C@@H](C)OP(=O)([O-])OC[N+]1(CCCCOc2ccc3ccc(=O)[nH]c3c2)CCN(c2cccc3sccc23)CC1 [EX 103, (R)-(4-(benzo[b]thiophen-4-yl)-1-(4-((2-oxo-1,2-dihydroquinolin-7-yl)oxy)butyl)piperazin-1-ium-1-yl)methyl(1-ethoxy-1-oxopropan-2-yl) phosphate] | 0 nM | -10 nM | 3% | –
6 | COCCOCOCCCCOP(=O)([O-])OC[N+]1(CCCCOc2ccc3ccc(=O)[nH]c3c2)CCN(c2cccc3sccc23)CC1 [EX 53, (4-(benzo[b]thiophen-4-yl)-1-(4-((2-oxo-1.2-dihydroquinolin-7-yl)oxy)butyl)piperazin-1-ium-1-yl)methyl (4-((2-methoxyethoxy)methoxy)butyl) phosphate] | 0 nM | 60 nM | -3% | –
7 | C[C@@H]1CN(CCOP(=O)([O-])OC[N+]2(CCCCOc3ccc4ccc(=O)[nH]c4c3)CCN(c3cccc4sccc34)CC2)C[C@H](C)O1 [EX 116, (4-(benzo[b]thiophen-4-yl)-1-(4-((2-oxo-1,2-dihydroquinolin-7-yl)oxy)butyl)piperazin-1-ium-1-yl)methyl (2-((2S,6R)-2,6-dimethylmorpholino)ethyl) phosphate] | 0 nM | 90 nM | -9% | –
8 | CC(C)(C)C(=O)OCCCCCCOP(=O)([O-])OC[N+]1(CCCCOc2ccc3ccc(=O)[nH]c3c2)CCN(c2cccc3sccc23)CC1 [EX 102, (4-(benzo[b]thiophen-4-yl)-1-(4-((2-oxo-1,2-dihydroquinolin-7-yl)oxy)butyl)piperazin-1-ium-1-yl)methyl (6-(pivaloyloxy)hexyl) phosphate] | 0 nM | 70 nM | 16% | –
9 | COCCNP(=O)([O-])OC[N+]1(CCCCOc2ccc3ccc(=O)[nH]c3c2)CCN(c2cccc3sccc23)CC1 [EX 152, (4-(benzo[b]thiophen-4-yl)-1-(4-((2-oxo-1,2-dihydroquinolin-7-yl)oxy)butyl)piperazin-1-ium-1-yl)methyl (2-methoxyethyl)phosphoramidate] | 0 nM | 10 nM | -10% | –
10 | CCCCOCCOCCOCCOC(=O)OCOP(=O)([O-])OC[N+]1(CCCCOc2ccc3ccc(=O)[nH]c3c2)CCN(c2cccc3sccc23)CC1 [EX 138, (4-(benzo[b]thiophen-4-yl)-1-(4-((2-oxo-1,2-dihydroquinolin-7-yl)oxy)butyl)piperazin-1-ium-1-yl)methyl (3-oxo-2,4,7,10,13-pentaoxaheptadecyl) phosphate] | 0 nM | 90 nM | -7% | –
11 | CCOC(=O)CNP(=O)([O-])OC[N+]1(CCCCOc2ccc3ccc(=O)[nH]c3c2)CCN(c2cccc3sccc23)CC1 [EX 154, (4-(benzo[b]thiophen-4-yl)-1-(4-((2-oxo-1,2-dihydroquinolin-7-yl)oxy)butyl)piperazin-1-ium-1-yl)methyl (2-ethoxy-2-oxoethyl)phosphoramidate] | 0 nM | 20 nM | 4% | –
12 | COCCN(CCOC)P(=O)([O-])OC[N+]1(CCCCOc2ccc3ccc(=O)[nH]c3c2)CCN(c2cccc3sccc23)CC1 [EX 153, (4-(benzo[b]thiophen-4-yl)-1-(4-((2-oxo-1.2-dihydroquinolin-7-yl)oxy)butyl)piperazin-1-ium-1-yl)methyl bis(2-methoxyethyl)phosphoramidate] | 0 nM | -10 nM | – | -7%
13 | O=C(OCOP(=O)([O-])OC[N+]1(CCCCOc2ccc3ccc(=O)[nH]c3c2)CCN(c2cccc3sccc23)CC1)N1CCOCC1 [EX 160, (4-(benzo[b]thiophen-4-yl)-1-(4-((2-oxo-1,2-dihydroquinolin-7-yl)oxy)butyl)piperazin-1-ium-1-yl)methyl (((morpholine-4-carbonyl)oxy)methyl) phosphate] | 0 nM | -10 nM | 9% | –
14 | O=C(O)CCCCCOC(=O)OCOP(=O)([O-])OC[N+]1(CCCCOc2ccc3ccc(=O)[nH]c3c2)CCN(c2cccc3sccc23)CC1 [EX 145, (4-(benzo[b]thiophen-4-yl)-1-(4-((2-oxo-1,2-dihydroquinolin-7-yl)oxy)butyl)piperazin-1-ium-1-yl)methyl (((((5-carboxypentyl)oxy)carbonyl)oxy)methyl) phosphate] | 0 nM | 30 nM | -9% | –
15 | CCOC(=O)CCCCCOC(=O)OCOP(=O)([O-])OC[N+]1(CCCCOc2ccc3ccc(=O)[nH]c3c2)CCN(c2cccc3sccc23)CC1 [EX 144] | 0 nM | 120 nM | 18% | –
